{"source": "patent US20110203018A1", "about": "“Use of Carboxamides on Cultivated Plants” (BASF SE, priority 2008, published 2011)", "key": {"Leptosphaeria maculans": {"test_system": "Leptosphaeria maculans", "assay": "Field trial: Leptosphaeria maculans in oilseed rape (stem scoring, disease index)", "format": "in vivo"}, "oilseed rape": {"test_system": "oilseed rape", "assay": "Field trial: oilseed rape grain yield", "format": "in vivo", "method": "Oilseed rape was grown in 2002 at the Verde in France. The variety Colosse was planted at a seeding rate of 3 kg/ha. Row spacing was 17 cm. Plot size was 30 m^2. […] The formulation was diluted in a total spray volume of 300 l/ha.\nAt maturity, the plants were harvested and the grain yield was measured (Tab. 4)."}, "soybeans": {"test_system": "soybeans", "assay": "Field trial: soybean grain yield and thousand grain weight (TGW)", "format": "in vivo", "conditions": "for Grain Yield (dt/ha) / TGW: soybeans, field, EC; for Grain Yield (dt/ha): Control 16.6; for TGW: Control 113.9"}, "[1]": {"test_system": "common rust (Puccinia sorghi)", "assay": "Field trial: efficacy against common rust in maize (infected leaf area)", "format": "in vivo", "description": "The variety DKB 390 was planted at a seeding rate of 60,000 plants per ha. Row spacing was 80 cm. Plot size was 30 m^2."}, "maize [2]": {"test_system": "maize", "assay": "Field trial: green leaf retention in maize (green leaf area)", "format": "in vivo", "description": "The variety DKB 390 was planted at a seeding rate of 60,000 plants per ha. Row spacing was 80 cm. Plot size was 30 m^2. […] Green leaf retention was estimated in treated and control plants by estimating the green leaf area 28 days after treatment in 10 randomly chosen plants per plot."}, "maize [3]": {"test_system": "maize", "assay": "Field trial: maize grain yield and thousand grain weight (TGW)", "format": "in vivo", "method": "The variety DKB 390 was planted at a seeding rate of 60,000 plants per ha. Row spacing was 80 cm. Plot size was 30 m^2. […] At maturity, the plants were harvested and the grain yield and thousand grain weight (TGW) were measured (Tab. 2)."}, "Rhizoctonia solani": {"test_system": "Rhizoctonia solani", "assay": "Field trial: efficacy against Rhizoctonia solani in rice (infected leaf area, frequency of infection)", "format": "in vivo", "method": "Imidazolinone tolerant rice ([…]) was grown in 2008 at Washington, 7033 Highway 103, LA, USA. […] Row spacing was 18 cm. Plot size was 27.5 m^2. […] Infection with Rhizoctonia solani 77 days after treatment with COMPOUND 2 was assessed (Tab. 3) by estimating the infected leaf area and frequency of infection in 10 randomly chosen plants per plot."}, "rice": {"test_system": "rice", "assay": "Field trial: rice grain yield", "format": "in vivo", "method": "Imidazolinone tolerant rice ([…]) was grown in 2008 at Washington, 7033 Highway 103, LA, USA. […] Row spacing was 18 cm. Plot size was 27.5 m^2. […] At maturity, the plants were harvested and the grain yield was measured (Tab. 3)."}, "[4]": {"test_system": "Asian Soybean Rust (Phakopsora pachyrhizi)", "assay": "Field trial: efficacy against Asian Soybean Rust in soybeans (infected leaf area)", "conditions": "for Efficacy against soybean rust (%): soybeans, field, EC, assessed 20 days after last treatment, infection in Control 95% infected leaf area"}, "[5]": {"conditions": "herbicide tolerant oilseed rape variety"}, "[6]": {"conditions": "30 g AI/ha applied twice (BBCH 55/61 and 65/71)"}, "[7]": {"conditions": "50 g AI/ha applied twice (application time BBCH 19)"}}, "data": [{"smiles": "O=C(Nc1ccccc1-c1ccc(Cl)cc1)c1cccnc1Cl", "note": "[BOSCALID, boscalid]", "values": [{"measurement": "activity against Leptosphaeria maculans versus expected from combination of effects", "setting": "Leptosphaeria maculans; herbicide tolerant (imidazolinone resistance) oilseed rape variety", "result": "increased"}, {"measurement": "disease control, combination of treatment with herbicide tolerant variety", "setting": "Leptosphaeria maculans; [5]", "result": "synergistic effects"}, {"measurement": "LEPTMA disease index", "setting": "Leptosphaeria maculans; oilseed rape Colosse, field, 50 g/ha, WG (Cantus), BBCH 16, 209 days after treatment, Control 3.17, infection rate in Control 49%", "result": 1.71}, {"measurement": "activity against Leptosphaeria maculans in oilseed rape", "setting": "Leptosphaeria maculans; oilseed rape field trial, Cantus WG 500 g/kg, 0.5 kg/ha, once, 209 days after treatment", "result": "good activity"}, {"measurement": "grain yield, combination of treatment with herbicide tolerant variety", "setting": "oilseed rape; [5]", "result": "synergistic effects"}, {"measurement": "increase in grain yield versus expected from single effects", "setting": "oilseed rape; [5]", "result": "bigger"}, {"measurement": "Grain Yield (dt/ha)", "setting": "oilseed rape; oilseed rape Colosse, field, 50 g/ha, WG (Cantus), BBCH 16, Control 33.9", "result": 49.3, "unit": "dt/ha"}, {"measurement": "grain yield compared to the untreated control", "setting": "oilseed rape; oilseed rape field trial", "result": "increase"}]}, {"smiles": "Cn1cc(C(=O)Nc2ccccc2-c2cc(F)c(F)c(F)c2)c(C(F)F)n1", "note": "[COMPOUND 2, N-(3′,4′,5′-trifluorobiphenyl-2-yl)-3-difluoromethyl-1-methyl-1H-pyrazole-4-carboxamide]", "values": [{"measurement": "grain weight of harvested grain versus the untreated", "setting": "soybeans; soybean field trial", "result": "increased"}, {"measurement": "grain yield compared to the untreated control", "setting": "soybeans; soybean field trial", "result": "increase"}, {"measurement": "Grain Yield (dt/ha)", "setting": "soybeans; [6]", "result": 21.6, "unit": "dt/ha"}, {"measurement": "TGW", "setting": "soybeans; [6]", "result": 143.5, "unit": "g"}, {"measurement": "Grain Yield (dt/ha)", "setting": "soybeans; [7]", "result": 22.9, "unit": "dt/ha"}, {"measurement": "TGW", "setting": "soybeans; [7]", "result": 144.1, "unit": "g"}, {"measurement": "grain yield, combination of treatment with transgenic variety", "setting": "soybeans; transgenic soybean variety", "result": "synergistic effects"}, {"measurement": "increase in grain yield and in grain weight versus expected from single effects", "setting": "soybeans; transgenic soybean variety", "result": "much bigger"}, {"measurement": "Efficacy against rust (%)", "setting": "[1]; maize DKB 390, field, 50 g/ha, EC, BBCH 51/55, 28 days after treatment, infection in Control 8.8% infected leaf area", "result": 88.6, "unit": "%"}, {"measurement": "activity against common rust in maize", "setting": "[1]; maize field trial, EC 62.5 g/l, 0.8 l/ha, once, 28 days after treatment", "result": "good activity"}, {"measurement": "activity against common rust versus expected from single effects", "setting": "[1]; transgenic glyphosate tolerant and/or insect resistant maize varieties", "result": "increased"}, {"measurement": "disease control, combination of treatment with transgenic variety", "setting": "[1]; transgenic maize variety", "result": "synergistic effects"}, {"measurement": "Green Leaf Area (%)", "setting": "maize [2]; maize DKB 390, field, 50 g/ha, EC, BBCH 51/55, 28 days after treatment, Control 34", "result": 40, "unit": "%"}, {"measurement": "green leaf area compared to control plants", "setting": "maize [2]; maize field trial, 28 days after treatment", "result": "increase"}, {"measurement": "increase in green leaf tissue versus expected from combination of effects", "setting": "maize [2]; transgenic maize plants", "result": "bigger"}, {"measurement": "Grain Yield (dt/ha)", "setting": "maize [3]; maize DKB 390, field, 50 g/ha, EC, BBCH 51/55, Control 49.2", "result": 55.2, "unit": "dt/ha"}, {"measurement": "TGW", "setting": "maize [3]; maize DKB 390, field, 50 g/ha, EC, BBCH 51/55, Control 325", "result": 333, "unit": "g"}, {"measurement": "grain weight of harvested grain over the untreated control", "setting": "maize [3]; maize field trial", "result": "increased"}, {"measurement": "grain yield compared to the untreated control", "setting": "maize [3]; maize field trial", "result": "increase"}, {"measurement": "grain yield, combination of treatment with transgenic variety", "setting": "maize [3]; transgenic maize variety", "result": "synergistic effects"}, {"measurement": "increase in grain yield and in grain weight versus expected from single effects", "setting": "maize [3]; transgenic maize variety", "result": "much bigger"}, {"measurement": "disease control, combination of treatment with Imidazolinone tolerance trait", "setting": "Rhizoctonia solani; CL 161 rice", "result": "synergistic effects"}, {"measurement": "Efficacy against Rhizctonia (%) Frequency", "setting": "Rhizoctonia solani; Imidazolinone tolerant rice CL 161, field, 50 g/ha, EC, BBCH 32/34, 77 days after treatment", "result": 45.6, "unit": "%"}, {"measurement": "Efficacy against Rhizctonia (%) Infection", "setting": "Rhizoctonia solani; Imidazolinone tolerant rice CL 161, field, 50 g/ha, EC, BBCH 32/34, 77 days after treatment, infection in Control 8% infected leaf area", "result": 50, "unit": "%"}, {"measurement": "activity against Rhizoctonia compared with a variety without the herbicide tolerance trait", "setting": "Rhizoctonia solani; Imidazolinone tolerant rice variety (CL 161)", "result": "higher"}, {"measurement": "activity against Rhizoctonia in rice", "setting": "Rhizoctonia solani; rice field trial, EC 62.5 g/l, 0.8 l/ha, once, 77 days after treatment", "result": "active"}, {"measurement": "grain yield, combination of treatment with Imidazolinone tolerance trait", "setting": "rice; CL 161 rice", "result": "synergistic effects"}, {"measurement": "increase in grain yield compared with a conventional variety", "setting": "rice; Clearfield variety (CL 161)", "result": "bigger"}, {"measurement": "Grain Yield (dt/ha)", "setting": "rice; Imidazolinone tolerant rice CL 161, field, 50 g/ha, EC, BBCH 32/34, Control 37.76", "result": 54.28, "unit": "dt/ha"}, {"measurement": "grain yield compared to the untreated control", "setting": "rice; rice field trial", "result": "increase"}, {"measurement": "activity against Asian Soybean Rust", "setting": "[4]; soybean field trial, EC 62.5 g/l, 0.48 l/ha and 0.8 l/ha, applied twice, 20 days after last treatment", "result": "good activity"}, {"measurement": "Efficacy against soybean rust (%)", "setting": "[4]; [6]", "result": 34, "unit": "%"}, {"measurement": "Efficacy against soybean rust (%)", "setting": "[4]; [7]", "result": 46, "unit": "%"}, {"measurement": "activity against Asian Soybean Rust versus expected from single effects", "setting": "[4]; transgenic glyphosate tolerant soybean variety", "result": "increased"}, {"measurement": "disease control, combination of treatment with transgenic variety", "setting": "[4]; transgenic soybean variety", "result": "synergistic effects"}]}]}
